The target in assay [1] is T1, mutEGFR (D770_N771insSVD) (Homo sapiens, UniProt P00533, DUP768-770).
T1 construct: GST-EGFR #3 (SVD between D770 and N771); made in house; host or cells: Sf9 insect cells (baculovirus)
In words: Exon20-Mutant-EGFR (D770_N771insSVD) kinase assay (TR-FRET). It counts as biochemical. The following applies: mutEGFR (D770_N771insSVD) kinase assay IC50, Table 2a; D770_N771insSVD; 2 mM ATP. On the technique in general: TR-FRET usually uses a lanthanide donor and a delayed reading to cut background.

For assay [2], the target named is T2, mutEGFR (D770_N771insNPG, T790) (Homo sapiens, UniProt P00533, INS770NPG/T790M).
T2 construct: exact insNPG construct not described; in-house EGFR proteins were N-terminal GST fusions from baculovirus/insect cells (borders R669-A1210 given only for WT, insSVD, insASV)
The assay is described as follows: mutEGFR (D770_N771insNPG, T790) kinase assay. It counts as biochemical. The following applies: Table 2a, D770_N771insNPG. The source says:
The different EGFR proteins used in the biochemical kinase activity inhibition assays were generated inhouse by expression in insect cells using Baculo Virus system and subsequent purification as described in the following paragraphs.
The cDNAs encoding the various protein sequences from human EGFR human (P00533) were optimized for expression in eukaryotic cells and synthesized by the GeneArt Technology at Life Technologies.

In the next assay the test system is BA/F3 (insSVD) cells. The assay is described as follows: Ba/F3-EGFR-insSVD cell survival assay (Cell Titer-Glo). It counts as cell-based. The following applies: Mus musculus, BaF3, 48 h, Table 3a, cell survival, Cell Titer-Glo, with 10 ng/ml EGF, without IL-3. In short, it runs like this: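 Ba/F3 cells stably expressing retroviral EGFR-insSVD or insSVD T790M, grown without IL-3 on 10 ng/ml EGF, 4000 cells/well. Compound pinned in, 48 h at 37° C. Viability by CellTiter-Glo luminescence.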
A general note: ATP-based viability assays read luminescence as a measure of living cells.

The results in this text go back to patent publication US20260365653A1, “IRREVERSIBLE MUTEGFR INHIBITORS” (Bayer Aktiengesellschaft, priority 2022, published 2026).

pIC50: −log10 of the molar value. Where “and” joins values, the source holds several entries; their conditions need not be identical. Identical values can stand only once.

T1 sequence (P00533 with tags, fused parts or gaps DUP768-770): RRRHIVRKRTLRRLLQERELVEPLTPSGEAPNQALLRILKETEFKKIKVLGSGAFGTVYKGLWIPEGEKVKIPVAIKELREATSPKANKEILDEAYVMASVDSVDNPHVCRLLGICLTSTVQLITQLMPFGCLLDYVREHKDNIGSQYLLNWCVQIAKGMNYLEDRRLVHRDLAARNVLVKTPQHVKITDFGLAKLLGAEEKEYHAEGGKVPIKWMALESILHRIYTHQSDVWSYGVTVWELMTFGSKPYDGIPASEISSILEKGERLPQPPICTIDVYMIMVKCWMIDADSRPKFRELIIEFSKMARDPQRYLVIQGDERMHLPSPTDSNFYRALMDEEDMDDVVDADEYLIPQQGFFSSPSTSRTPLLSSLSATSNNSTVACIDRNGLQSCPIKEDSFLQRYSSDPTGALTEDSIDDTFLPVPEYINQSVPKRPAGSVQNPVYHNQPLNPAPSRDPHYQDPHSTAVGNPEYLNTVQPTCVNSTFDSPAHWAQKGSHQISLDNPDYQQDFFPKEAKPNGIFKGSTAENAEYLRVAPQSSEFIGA
T2 sequence (P00533 with tags, fused parts or gaps INS770NPG/T790M limits assumed): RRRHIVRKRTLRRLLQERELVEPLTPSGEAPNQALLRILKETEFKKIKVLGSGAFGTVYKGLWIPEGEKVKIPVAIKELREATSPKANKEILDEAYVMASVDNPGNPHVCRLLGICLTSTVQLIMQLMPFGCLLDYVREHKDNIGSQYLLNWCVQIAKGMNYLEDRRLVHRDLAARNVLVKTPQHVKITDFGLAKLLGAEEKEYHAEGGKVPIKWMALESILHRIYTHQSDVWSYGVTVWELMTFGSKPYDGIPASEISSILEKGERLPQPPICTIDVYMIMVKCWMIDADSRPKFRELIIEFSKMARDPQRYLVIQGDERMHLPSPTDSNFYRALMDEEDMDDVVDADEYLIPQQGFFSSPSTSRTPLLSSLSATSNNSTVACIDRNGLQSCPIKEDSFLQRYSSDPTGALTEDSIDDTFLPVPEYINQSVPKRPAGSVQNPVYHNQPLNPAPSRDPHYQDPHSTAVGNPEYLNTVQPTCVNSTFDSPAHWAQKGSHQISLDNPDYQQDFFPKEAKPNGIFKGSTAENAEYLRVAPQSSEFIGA

For `C=CC(=O)N1Cc2c(-c3ccnc4[nH]cc(C)c34)c(-c3ccc(C(F)(F)F)cc3)nn2C[C@@H]1C` [Example 248, 1-[(6S)-6-methyl-3-(3-methyl-1H-pyrrolo[2,3-b]pyridin-4-yl)-2-[4-(trifluoromethyl)phenyl]-6,7-dihydropyrazolo[1,5-a]pyrazin-5(4H)-yl]prop-2-en-1-one], the negative-log IC50 (pIC50) in assay [1] is 7.11; in assay [2], 6.22; in the assay with BA/F3 (insSVD) cells it was 7.23.

For the compound `C=CC(=O)N1Cc2c(-c3ccnc4[nH]cc(C)c34)c(-c3ccc(F)cc3)nn2C[C@@H]1C` [Example 251, 1-[(6S)-2-(4-fluorophenyl)-6-methyl-3-(3-methyl-1H-pyrrolo[2,3-b]pyridin-4-yl)-6,7-dihydropyrazolo[1,5-a]pyrazin-5(4H)-yl]prop-2-en-1-one], the negative logarithm of the IC50 (pIC50) is 7.39 in assay [1], 8.14 in assay [2] and 7.61 with BA/F3 (insSVD) cells.

For the compound `Cc1c[nH]c2nccc(-c3c(-c4ccc(C(F)(F)F)cc4)nn4c3CN(C(=O)/C=C/CN(C)C)[C@@H](C)C4)c12` [Example 254, (2E)-4-(dimethylamino)-1-[(6S)-6-methyl-3-(3-methyl-1H-pyrrolo[2,3-b]pyridin-4-yl)-2-[4-(trifluoromethyl)phenyl]-6,7-dihydropyrazolo[1,5-a]pyrazin-5(4H)-yl]but-2-en-1-one], the results for the pIC50 (in assay [1]; in assay [2]; in the assay on BA/F3 (insSVD) cells) were 7.44, 6.36 and 7.40, respectively.

For `Cc1c[nH]c2nccc(-c3c(-c4ccc(F)cc4)nn4c3CN(C(=O)/C=C/CN(C)C)[C@@H](C)C4)c12` [Example 257, (2E)-4-(dimethylamino)-1-[(6S)-2-(4-fluorophenyl)-6-methyl-3-(3-methyl-1H-pyrrolo[2,3-b]pyridin-4-yl)-6,7-dihydropyrazolo[1,5-a]pyrazin-5(4H)-yl]but-2-en-1-one], the results for the negative logarithm of the IC50 (pIC50) (in assay [1]; in assay [2]; with BA/F3 (insSVD) cells) were 7.16, 7.68 and 7.51, respectively.

As to `C=CC(=O)N1Cc2c(-c3ccnc4[nH]cc(C)c34)c(-c3ccc(C(F)(F)F)cc3)nn2C[C@H]1C` [Example 260, 1-[(6R)-6-methyl-3-(3-methyl-1H-pyrrolo[2,3-b]pyridin-4-yl)-2-[4-(trifluoromethyl)phenyl]-6,7-dihydropyrazolo[1,5-a]pyrazin-5(4H)-yl]prop-2-en-1-one], the negative logarithm of the IC50 (pIC50) is 7.08 in assay [1], 5.89 in assay [2] and 7.00 with BA/F3 (insSVD) cells.

Consider `C=CC(=O)N1Cc2c(-c3ccnc4[nH]cc(C)c34)c(-c3ccc(F)cc3)nn2C[C@H]1C` [Example 263, 1-[(6R)-2-(4-fluorophenyl)-6-methyl-3-(3-methyl-1H-pyrrolo[2,3-b]pyridin-4-yl)-6,7-dihydropyrazolo[1,5-a]pyrazin-5(4H)-yl]prop-2-en-1-one], for which the pIC50 in assay [1] was 6.95; in assay [2], 7.61; with BA/F3 (insSVD) cells it was 7.09.

`Cc1c[nH]c2nccc(-c3c(-c4ccc(C(F)(F)F)cc4)nn4c3CN(C(=O)/C=C/CN(C)C)[C@H](C)C4)c12` [Example 266, (2E)-4-(dimethylamino)-1-[(6R)-6-methyl-3-(3-methyl-1H-pyrrolo[2,3-b]pyridin-4-yl)-2-[4-(trifluoromethyl)phenyl]-6,7-dihydropyrazolo[1,5-a]pyrazin-5(4H)-yl]but-2-en-1-one]: the negative logarithm of the IC50 (pIC50) is 6.34 in assay [1], 5.45 in assay [2] and 6.92 in the assay with BA/F3 (insSVD) cells.

As to `Cc1c[nH]c2nccc(-c3c(-c4ccc(F)cc4)nn4c3CN(C(=O)/C=C/CN(C)C)[C@H](C)C4)c12` [Example 269, (2E)-4-(dimethylamino)-1-[(6R)-2-(4-fluorophenyl)-6-methyl-3-(3-methyl-1H-pyrrolo[2,3-b]pyridin-4-yl)-6,7-dihydropyrazolo[1,5-a]pyrazin-5(4H)-yl]but-2-en-1-one], the pIC50 in assay [1] was 6.86; in assay [2], 7.42; with BA/F3 (insSVD) cells, 6.89.

For the compound `C=CC(=O)N1Cc2c(-c3ccncc3)c(-c3ccc(Cl)cc3F)nn2C[C@@H]1C` [Example 270, 1-[(6S)-2-(4-chloro-2-fluorophenyl)-6-methyl-3-(pyridin-4-yl)-6,7-dihydropyrazolo[1,5-a]pyrazin-5(4H)-yl]prop-2-en-1-one], the pIC50 in assay [1] was 9.67; in assay [2], 8.99; in the assay with BA/F3 (insSVD) cells, 7.94.

Take `C=CC(=O)N1Cc2c(-c3ccncc3)c(-c3ccc(Cl)cc3F)nn2C[C@H]1C` [Example 271, 1-[(6R)-2-(4-chloro-2-fluorophenyl)-6-methyl-3-(pyridin-4-yl)-6,7-dihydropyrazolo[1,5-a]pyrazin-5(4H)-yl]prop-2-en-1-one]: the results for the pIC50 (in assay [1]; in assay [2]; with BA/F3 (insSVD) cells) were 9.88, 9.45 and 6.65, respectively.

For `C=CC(=O)N1CCn2nc(Nc3ccccc3)c(-c3ccncc3)c2C1` [Example 272, 1-[2-anilino-3-(pyridin-4-yl)-6,7-dihydropyrazolo[1,5-a]pyrazin-5(4H)-yl]prop-2-en-1-one], the pIC50 is 8.63 in assay [1], 7.98 in assay [2] and 7.06 with BA/F3 (insSVD) cells.

With `CN(C)C/C=C/C(=O)N1CCn2nc(Nc3ccccc3)c(-c3ccncc3)c2C1` [Example 273, (2E)-1-[2-anilino-3-(pyridin-4-yl)-6,7-dihydropyrazolo[1,5-a]pyrazin-5(4H)-yl]-4-(dimethylamino)but-2-en-1-one], the pIC50 was 8.40 in assay [1], 7.67 in assay [2] and 6.27 with BA/F3 (insSVD) cells.

On to `C=CC(=O)N1Cc2c(-c3ccncc3)c(-c3ccc4sccc4c3)nn2C[C@@H]1C` [Example 276, 1-[(6S)-2-(1-benzothiophen-5-yl)-6-methyl-3-(pyridin-4-yl)-6,7-dihydropyrazolo[1,5-a]pyrazin-5(4H)-yl]prop-2-en-1-one], for which the pIC50 in assay [1] is 10.04; in assay [2], 9.80; in the assay on BA/F3 (insSVD) cells, 8.21.

As for `C=CC(=O)N1Cc2c(-c3ccncc3)c(-c3ccc4sccc4c3)nn2C[C@H]1C` [Example 277, 1-[(6R)-2-(1-benzothiophen-5-yl)-6-methyl-3-(pyridin-4-yl)-6,7-dihydropyrazolo[1,5-a]pyrazin-5(4H)-yl]prop-2-en-1-one], the negative logarithm of the IC50 (pIC50) in assay [1] is > 10.14 and 10.02 and 9.95; in assay [2], 9.82; in the assay on BA/F3 (insSVD) cells it was 8.56.

As for `C=CC(=O)N1Cc2c(-c3ccnc4[nH]cc(C)c34)c(-c3cccc(C#N)c3)nn2C[C@@H]1C` [Example 283, 3-[(6S)-6-methyl-3-(3-methyl-1H-pyrrolo[2,3-b]pyridin-4-yl)-5-(prop-2-enoyl)-4,5,6,7-tetrahydropyrazolo[1,5-a]pyrazin-2-yl]benzonitrile], the pIC50 is 6.60 in assay [1], 7.52 in assay [2] and 7.43 in the assay on BA/F3 (insSVD) cells.

Regarding `C=CC(=O)N1Cc2c(-c3ccnc4[nH]cc(C)c34)c(-c3cccc(C#N)c3)nn2C[C@H]1C` [Example 284, 3-[(6R)-6-methyl-3-(3-methyl-1H-pyrrolo[2,3-b]pyridin-4-yl)-5-(prop-2-enoyl)-4,5,6,7-tetrahydropyrazolo[1,5-a]pyrazin-2-yl]benzonitrile], the negative-log IC50 (pIC50) in assay [1] was 5.86; in assay [2], 6.76; in the assay on BA/F3 (insSVD) cells, 6.28.

Turning to `Cc1c[nH]c2nccc(-c3c(-c4cccc(C#N)c4)nn4c3CN(C(=O)/C=C/CN(C)C)[C@@H](C)C4)c12` [Example 288, 3-[(6S)-5-[(2E)-4-(dimethylamino)but-2-enoyl]-6-methyl-3-(3-methyl-1H-pyrrolo[2,3-b]pyridin-4-yl)-4,5,6,7-tetrahydropyrazolo[1,5-a]pyrazin-2-yl]benzonitrile], the negative-log IC50 (pIC50) in assay [1] was 6.46; in assay [2], 7.27; in the assay with BA/F3 (insSVD) cells, 6.74.

As for `Cc1c[nH]c2nccc(-c3c(-c4cccc(C#N)c4)nn4c3CN(C(=O)/C=C/CN(C)C)[C@H](C)C4)c12` [Example 289, 3-[(6R)-5-[(2E)-4-(dimethylamino)but-2-enoyl]-6-methyl-3-(3-methyl-1H-pyrrolo[2,3-b]pyridin-4-yl)-4,5,6,7-tetrahydropyrazolo[1,5-a]pyrazin-2-yl]benzonitrile], the negative-log IC50 (pIC50) in assay [1] is 5.17; in assay [2], 6.46; in the assay with BA/F3 (insSVD) cells, 6.04.

As a reminder, the pIC50 is −log10 of the IC50, conventionally taken in molar units. A low value points to a high IC50.
